From patent US6197751A, “Thymosin α1 promotes tissue repair, angiogenesis and cell migration” (The United States of America as represented by the …, priority 1998, dated 2001) come the findings set out here.

Ends that are not written are not given here.

One experiment has as its system Neutrophils. Briefly: Boyden chamber migration, neutrophils. Format: cell-based. Particulars: for average number of cells that migrated ± SEM: Neutrophils. As to the method: (§1) Human umbilical vein endothelial cells (HUVECs) were isolated from freshly delivered cords according to Jaffe et al. (J. Clin. Invest. 52: 2745, 1973) and grown on Nunclon dishes (Nunc, Denmark) in RPMI 1640 (Life Technologies, Gaithersburg, Md.) supplemented with 20% bovine calf serum (Hyclone Laboratories, Logan Utah), 100 U/ml penicillin/streptomycin (Life Technologies, Gaithersburg, Md.), 50 μg/ml gentamycin (Life Technologies, Gaithersburg, Md.), 2.7 μg/ml amphotericin B (fungizone)(Life Technologies, Gaithersburg, Md.), 5 U/ml sodium heparin (Fisher Scientific, Pittsburgh, Pa.) and 200 μg/ml endothelial cell growth supplement (ECGS) (Collaborative Research, Bedford, Mass.). Cells between passage 3 and 5 were used for all experiments. Human coronary artery endothelial cells (HCAECs) were grown on Nunclon dishes in the HUVEC media. Foreskin fibroblasts (Ffs) were grown in DMEM supplemented with 10% fetal bovine serum (Hyclone) on Falcon (Becton Dickinson, N.J.) dishes. HT1080 cells (human fibrosarcoma cell line) were grown in Falcon flasks in DMEM supplemented with 10% fetal bovine serum. Neutrophils were freshly isolated from buffy coats as previously reported (Kibbey et al., J. Cell Phys. 160:185, 1994). Human aortic smooth muscle cells (AOSMCs) were grown in smooth muscle cell media (Clonetics, San Diego, Calif.) on Nunclon dishes.
(§2) Several cell types were tested to determine if the migratory stimulation observed with Tα1 was specific. […] HUVEC migration assays were carried out in Boyden chambers using 12 ,m pore PVP free filters coated with either a 0.1 mg/ml or 0.05 mg/ml solution of collagen IV as previously reported (Malinda et al., FASEB J. 11:474, 1997). Each condition was assayed in triplicate wells at least three times unless indicated. HCAECs, AOSMCs, FFs, HT1080 cells and neutrophils were cultured or isolated and assayed for migration as previously reported (Malinda et al., FASEB J. 11:474, 1997).

Another experiment deals with HUVEC. Briefly: HUVEC migration in Boyden chamber assays. Type of experiment: cell-based, human. As to the method:
as §2

Another experiment relates to C57Bl/6N female mice. In words: Subcutaneous Matrigel plug assay. Type of experiment: in vivo. As to the method:
Since Tα1 enhanced HUVEC migration in vitro, experiments were performed to determine if Tα1 promoted cell migration and vessel formation in vivo. Endothelial cells invade and form vessels in Matrigel plugs containing angiogenic factors (Kibbey et al., J. Cell Phys. 160:185, 1994; Passaniti et al., Lab. Invest. 67: 519, 1992). […] Three random fields were collected and analyzed per plug in each of three experiments. […] Cells migrate into the plug from the area closest to the skin forming vessels (FIG. 5). Plugs containing Tα1 (FIGS. 5C and 5D) show many more cells than in the Matrigel alone (FIG. 5A). Cell morphology was similar to those in plugs containing 10 ng/ml of the positive control ECGS (FIG. 5B).

Experiment [1] deals with human aortic smooth muscle cells. Briefly: Boyden chamber migration, aortic smooth muscle cells. Type of experiment: cell-based. Conditions: for average number of cells that migrated ± SEM: AOSMC. Here is the method: as §1, §2
Experiment [2] relates to human coronary artery endothelial cells. Briefly: Boyden chamber migration, coronary artery endothelial cells. Type of experiment: cell-based. Conditions: for average number of cells that migrated ± SEM: HCAEC. As to the method: as §1, §2

With “thymosin α1 (SDAAVDTSSEITTKDLKEKKEVVEEAEN; not fully specified; ends and bridges not checked; UniProt P06454 2-29, looked up) [Tα1, 28 amino acid peptide which results from the cleavage of the N-terminal region of prothymosin α1]”, the “average number of cells that migrated ± SEM” value is given as 138.7 in the experiment with Neutrophils (Thymosin α1 1 ng/ml); 138.7 ± 20 in the experiment with Neutrophils (Thymosin α1 10 ng/ml); 149.3 ± 13.5 in the experiment with Neutrophils (Thymosin α1 100 ng/ml); 149.3 ± 27 with Neutrophils (Thymosin α1 1000 ng/ml); 1 ± 0.3 in experiment [1] (Thymosin α1 1 ng/ml); 1 ± 0.4 in experiment [1] (Thymosin α1 10 ng/ml). Also, the “average number of cells that migrated ± SEM” value in experiment [1] (Thymosin α1 100 ng/ml) is 0.5 ± 0.5; in experiment [1] (Thymosin α1 1000 ng/ml) it was 1 ± 0.4; in experiment [2] (Thymosin α1 1 ng/ml) it was 14 ± 0.3; in experiment [2] (Thymosin α1 10 ng/ml), 16 ± 0.5; in experiment [2] (Thymosin α1 100 ng/ml) it was 18 ± 0.4; in experiment [2] (Thymosin α1 1000 ng/ml) it was 21 ± 0.4. Further, the “migration toward Tα1” value (in the experiment with Neutrophils (neutrophils); in experiment [1] (human aortic smooth muscle cells)) was “did not demonstrate any significant migration” each time. Also, in the experiment with HUVEC (Tα1 in the lower wells, filters coated with collagen IV), the “increase in HUVEC migration” value is on record as 3-6 fold. In addition, the “checkerboard assay, chemoattraction vs chemokinesis” value in the experiment with HUVEC (increasing Tα1 in lower well vs in upper and lower wells) is on record as “More cells migrated along the concentration gradient of Tα1 in the lower well”. The “cell migration into plugs” value in the experiment on C57Bl/6N female mice (1 μg/ml and 500 μg/ml) was “a decrease in migration was observed”. In addition, the “cell migration and angiogenesis in vivo vs Matrigel alone” value in the experiment with C57Bl/6N female mice (5 μg/ml of Tα1) is listed as “always significantly higher than Matrigel alone”. The “increase in migration over media alone” value in experiment [2] (1000 ng of Tα1) is 2 fold. The migration entry in experiment [2] (1-100 ng doses) was “Significant migration”.
